US6977251B2, “5-androstene-3β, 17α diol as an inhibitor of tumor growth” (priority 1997, dated 2005)
Read-outs that look alike come from different tables or passages of the source.

Key:
RAW 264.7 = tested on: RAW 264.7
Method: (§1) For cell proliferation assays, cell suspensions were prepared by trypsinization of cells from cultures prepared in accord with methods described above. Cell viability was determined by trypan blue exclusion. The cells were then seeded in flat-bottom 96-well microtiter plates at a density of 2×10^3 cells/well and were allowed to rest for 48 hours in order to adhere. Non-adherent dead cells were removed by aspiration. Cells were then grown in media without phenol red. Some of the media contained supplements as indicated above. […] The cells were then grown for six days. Media was changed on the samples every 48 hours. On day 6, cells were pulsed with 1 μCi[…]-thymidine for the last 6 hours of incubation before harvesting onto glass filter using a HPD cell harvester (Cambridge Technology, Watertown, Mass.) and counted on a KLB scintillation counter.
Effects of αAED at doses of 50 ηM and 100 ηM doses on murine macrophage myeloma cells (RAW 264.7, obtained from the American Type Culture Collection) was studied.

ZR-75-1 cells [1] = assay: cells; details: for cell proliferation (3H-thymidine): six day period
Method: The ZR-75-1 cell line (passage 89) was obtained from the American Type Culture Collection (Rockville, Md.). The cells were cultured in RPMI-1640 medium containing 10% heat-inactivated fetal calf serum, 200 μM L-glutamine, […] HEPES, 1.5 U/ml penicillin, and 1.5 μg/ml streptomycin in 5% CO2 at 37° C. The cells were passaged twice weekly.
(§2) Cells were first seeded at initial density of 1×10^5 cells per ml in quadruplicates in 24 multi-well flat bottom plates (Costar). Cells were then allowed to adhere and grow in phenol red-free […] media supplemented with 10% heat-inactivated fetal calf serum (FCS), 200 μM L-glutamine, 10 mM HEPES, 2.5 U/ml penicillin and 2.5 μg/ml streptomycin in 5% CO2 at 37° C. After 48 hours, four wells were sacrificed and counted to determine plating efficiency. In the remaining wells, medium was removed by aspiration and cells in each well were exposed to the media containing the specified steroid. The controls containing only medium or medium with vehicle were also prepared. In all samples, medium was changed every 48 hours. At the pre-established time-point. Cells were removed by trypsinization and washed. Cell number and viability were determined by trypan blue exclusion using a hemocytometer. Parallel cultures were also run to determine cell proliferation.
as §1
ZR-75-1 cells (2×10^3) were treated as described above over a six day period with differing concentrations of αAED or with vehicle-only cultures. The medium was changed every 48 hours. Cells were pulsed with ^3H-thymidine for the last six hours of incubation.

P388D1 cells = details: RU486 at 0.5 μM and 1.0 μM
Method: as §1

ZR-75-1 cells [2] = details: trypan blue exclusion
Method: as §2

Compound	proliferation of RAW 264.7 cells (RAW 264.7; 50 ηM)	proliferation of RAW 264.7 cells (RAW 264.7; 100 ηM)	cell proliferation in combination with RU486 (ZR-75-1 cells [1]; 0.1 μl concentrations of αAED with 0.5 μM RU486)	cell proliferation (3H-thymidine) (ZR-75-1 cells [1]; 6.25 ηM)	cell proliferation (3H-thymidine) (ZR-75-1 cells [1]; 12.5 ηM)	cell proliferation (3H-thymidine) (ZR-75-1 cells [1]; 50 ηM)	IC50 (ZR-75-1 cells [1]; Homo sapiens, ZR-75-1, read-out: half-maximal dose of anti-proliferative effect)	maximal dose of anti-proliferative effect (ZR-75-1 cells [1]; ZR-75-1 cells, dose and time-dependent)	cell proliferation in the presence of estradiol (ZR-75-1 cells [1]; higher doses of αAED, 1 ηM estradiol, 6 day period)	concentration at which growth of ZR-75-1 cells was significantly inhibited (ZR-75-1 cells [1]; tritiated thymidine incorporation, in vitro)	cell proliferation in the presence of βAED (ZR-75-1 cells [1]; varied αAED, βAED constant at 2.5 ηM, six days)	cell proliferation in combination with RU486 (ZR-75-1 cells [1]; αAED with RU486 at 1 μM)	effect on growth of P388D1 cells in combination with RU486 (P388D1 cells)	cytotoxicity (cell count and viability) (ZR-75-1 cells [2])	antiproliferative effect on growth of ZR-75-1 cells (ZR-75-1 cells [1]; alone at 100 ηM)
C[C@]12CC[C@H]3[C@@H](CC=C4C[C@@H](O)CC[C@@]43C)[C@@H]1CC[C@H]2O [αAED, 5-androstene 3β,17α diol]	significant inhibition of proliferation	significant inhibition of proliferation	synergistic action to decrease proliferation of cells	increasing proliferation	decreasing cell proliferation	marked decrease	0.05 µM	100 ηM	suppressed proliferation even in the presence of estradiol	≥ 12.5 ηM	decreased proliferation at all concentrations	synergism was shown to be even greater	increased effectiveness over use of one agent	not toxic to the cells	
C[C@]12CC[C@H]3[C@@H](CC=C4C[C@@H](O)CC[C@@]43C)[C@@H]1CC[C@@H]2O [βAED, 5-androstene 3β,17β diol, reference compound]															did not have any antiproliferative effect
